From patent publication US8642660B2, “Method for altering the lifespan of eukaryotic organisms” (The University of Rochester, priority 2007, dated 2014)

Tests used:
yeast cells [1] = assay: "775" DeaD assay, single-concentration screen for countering nicotinamide lifespan shortening; format: cell-based, Saccharomyces cerevisiae; parameters: key: compounds that exhibited >26% inhibition are defined as active; Compounds that exhibited <=26% inhibition are defined as inactive; details: compounds 10 uM, 1.5 mM nicotinamide, 48 hours, OD615
Excerpt: Having established the suitability of the DeaD assay as a proxy for microdissection, the DeaD assay was used to screen a 132,796 compound library for the ability of compounds in the library to counter the lifespan-shortening effect of nicotinamide.
Specifically, as described in the AID 775 assay results (synonymously, the “775” assay results) on the “PubChem” website at pubchem.ncbi.nlm.nih.gov/assay/assay.cgi?aid=775, the contents of which are herein incorporated in their entirety by reference, the percent inhibition of nicotinamide lifespan shortening, i.e. percent reversal of nicotinamide effect on lifespan, was calculated using the optical density in control wells with cells treated with 1.5 mM nicotinamide as full lifespan shortening effect of nicotinamide (0% inhibition of nicotinamide), and wells with cells grown in medium without nicotinamide as an indicator of 100% inhibition. The appropriate compounds in the PubChem compound library (about 132,000 compounds selected from the total library of about 10 million compounds) were screened at 10 uM in the presence of 1.5 mM nicotinamide. For further details, see, e.g., the following references: Jarolim, S., Millen, J., Heeren, G., Laun, P., Goldfarb, D. S. and M. Breitenbach. (2004). A novel assay for replicative lifespan in Saccharomyces cerevisiae. FEMS Yeast Res. 5, 169-177; Bitterman, K. J., Anderson, R. M., Cohen, H. Y., Latorre-Esteves, M., and D. A. Sinclair. (2002). Inhibition of silencing and accelerated aging by nicotinamide, a putative negative regulator of yeast Sir2 and human SIRT1. J. Biol. Chem. 277, 45099-45107; Tsuchiya, M., Dang, N., Kerr, E. O., Hu, D., Steffen, K. K., Oakes, J. A., Kennedy, B. K. and M. Kaeberlein (2006) Sirtuin-independent effects of nicotinamide on lifespan extension from calorie restriction in yeast. Aging Cell. 5, 505-514.
Assays were conducted as follow. Cells were streaked out on a YPGal agar plate and grown for 48 hours at 30° C. Four colonies were selected, 50 mL of YPGal medium in a flask was inoculated and grown at 30° C. with shaking O/N. OD600 was measured. The OD should be <0.7 for the cells to be in log phase. The cells were centrifuged, washed once and resuspended in CSMM-D restrictive growth medium. OD600 was measured again. The culture was diluted to an OD600 of 0.002 in CSMM-D restrictive medium. The culture was pre-incubated in a flask with shaking at 30° C. for 4 hours. At the end of the pre-incubation, OD600 was measured for reference. Nicotinamide (negative control), medium alone (positive control) and compounds in the presence of nicotinamide were plated with DMSO at 10× concentration (final concentrations: nicotinamide 1.5 mM, compounds 10 uM, DMSO 0.25%) in 384-well plates: 5 uL/well. The yeast was added to the plates: 45 uL/well. Plates were incubated at 30 C in a humidified chamber. After 48 hours incubation, plates were shaken for 30 seconds and OD615 was read in an EnVision (PerkinElmer) multilabel plate reader. For these assays, YPGal medium was prepared as 10 grams yeast extract, 20 grams peptone, 900 mL water, autoclave at 121° C. for 15 minutes, add 100 mL sterile 20% (w/v) galactose. CSMM-D (Complete Synthetic Minimal Medium-Dextrose) (restrictive) medium was prepared as 6.7 grams yeast nitrogen base without amino acids, 2.0 grams Drop-out mix complete (DOC) (USBiological Cat. no. D9515), 100 mL 20% (w/v) dextrose, water to 1.0 L, then filter sterilize.
An activity threshold of >26% was calculated as greater than three standard deviations from the median compound inhibition. […] Because of the inherent error in all high-throughput screens including the fallacy of over-interpreting single dose data, a tiered scoring system was adopted for this Example, in which compounds were scored on a scale of 0-40 based on activity, with a scaled activity threshold of 11. Using this tiered scoring system, the compounds were ranked, with 906 of these compounds defined as “active” using this tiered scoring system. […]

yeast cells [2] = assay: Full DeaD assay lifespan timecourse (FIG. 3); format: cell-based, Saccharomyces cerevisiae; details: 2.5, 5.0, 10 uM, nonpermissive conditions
Method: FIG. 3 provides a plot showing DeaD assays for compound SID 855620 (nalidixic acid) in the presence and absence of nicotinamide. The nalidixic acid was incubated with growing cells under nonpermissive conditions at concentrations of 2.5, 5.0, and 10 uM (micromolar) in the presence and absence of 1.5 mM nicotinamide. Control experiments for growth in the presence and absence of nicotinamide without the drug are included. The last three entries showing the line labeling are all results obtained with 1.5 mM nicotinamide and, respectively, 2.5, 5 or 10 uM nalidixic acid. The data lines shown in this figure correspond to (topmost to bottommost as they appear at the extreme right side of the data lines): 2.5, 10, or 5 uM nalidixic acid (no nicotinamide); blank cells (labeled “no NIC”); 5 or 10 uM nalidixic acid plus 1.5 mM nicotinamide (in both cases); 10 uM nalidixic acid (no nicotinamide); and, blank cells with 1.5 mM nicotinamide (labeled “1.5 mM NIC”).
In order to validate the results of the “809” experiment of Example 3, timecourses for the effect of the top 70 compounds identified in Example 3 may be performed using the DeaD assay for, e.g., a 140 hour interval for each of these compounds. […]

yeast cells [3] = assay: Standard microdissection replicative lifespan assay (FIG. 4); format: cell-based, Saccharomyces cerevisiae
Method: FIG. 4 provides standard microdissection lifespans for nicotinamide in the presence of nalidixic acid and 5 mM nicotinamide. Three experiments that included three concentrations of nalidixic acid all increased mean lifespans (shown in parentheses) and maximum lifespans. In this Figure, “#864” refers to nalidixic acid, e.g., the second entry in the legend refers to 54 uM nalidixic acid, the third entry refers to 107 uM nalidixic acid, etc. The number presented in parentheses in the figure legend refers to the mean lifespan of the population in each experiment presented in this Figure, e.g., the control population (5 mM nicotinamide only) has a mean lifespan of 14.2 generations, etc.
In order to verify the data of Example 4 for nalidixic acid, microdissection experiments were performed using this compound to counter the effect of nicotinamide, with the results of these experiments shown in FIG. 4.

DeaD strain BB579 = assay: "809" DeaD assay, dose-response screen (EC50) in presence of nicotinamide; format: cell-based, Saccharomyces cerevisiae; parameters: key: An activity threshold of EC50<=10 uM was set and compounds that met this criterion are defined as active; Compounds that exhibited an EC50>10 uM are defined as inactive; details: compounds 0.078-10 uM, 1.5 mM nicotinamide, 48 hours
Method: As already discussed, Example 2 provides data using the “775” DeaD assay to determine compounds that counter the lifespan-reducing effects of 1.5 mM nicotinamide, with this Example identifying about 900 “active” compounds. Example 2 used only a single compound concentration of 10 uM; in the current Example, the top 500 of these “active” compounds were again screened using the DeaD assay, but now at 8 concentrations ranging from 0.078 to 10 uM, again in the presence of 1.5 mM nicotinamide, resulting in the data provided in Table 1. This more extensive data allowed for the determination of the half maximal effective concentration (EC50). See the “AID 809” assay (the “809” assay) results on the PubChem website at pubchem.ncbi.nlm.nih.gov/assay/assay.cgi?aid=809.
Thus, in this Example compounds were screened in an 8-point 2-fold dilution series ranging from 0.078 to 10 uM in the presence of 1.5 mM nicotinamide. The percent activation of lifespan, i.e. percent reversal of nicotinamide effect on lifespan, was calculated using the optical density in control wells with cells treated with 1.5 mM nicotinamide as full lifespan shortening effect of nicotinamide (0% activation), and wells with cells grown in medium without nicotinamide as an indicator of 100% activation. From the % activation values of the different compound concentrations, the half maximal effective concentration (EC50) was calculated using IDBS ActivityBase software and XLfit equation 205 for a four parameter logistic fit; the maximum and minimum values were fixed at 100% and 0%.
Assays were conducted as follow. Cells (DeaD strain BB579) were streaked out on a YPGal agar plate and grown for 48 hours at 30° C. Four colonies were selected, 50 mL of YPGal medium in a flask was inoculated and grown at 30 C with shaking O/N. OD600 was measured. The OD should be <0.7 for the cells to be in log phase. […] OD600 was measured again. […] At the end of the pre-incubation, OD600 was measured for reference. […] After 48 hours incubation, plates were shaken for 30 seconds and OD615 was read in an EnVision (PerkinElmer) multilabel plate reader. […]

C. elegans = details: Pnc1 and SIR2-ortholog dependent; Van der Horst et al. 2007; cited from earlier work
DeaD strain = assay: DeaD assay validation with nicotinamide (FIG. 2); format: cell-based, Saccharomyces cerevisiae; details: 0.5, 0.75, 1 mM NIC
Method: Panel A: Under growth in glucose (nonpermissive conditions) DeaD lifespans are reduced in a dose-dependent fashion by increasing concentrations of nicotinamide. […] The lines shown in panel A correspond to (top to bottom) 0, 0.5, 0.75, and 1 mM NIC. The 3 lines visible in panel B correspond to (topmost to bottommost), 0.5, 0.75, or 1 mM NIC; the 0 mM NIC line is not visible.
The DeaD assay was developed as a high throughput proxy for conventional microdissection assays used to determine yeast replicative ageing. In order to verify the ability of this assay to produce results corresponding to conventional microdissection assay results, the data of FIG. 1 were obtained using either the DeaD assay (panel A) or via microdissection (panel B).

[4] = 5 mM nicotinamide, three concentrations of nalidixic acid

Structure (SMILES) | activity in the 775 assay (percent inhibition of nicotinamide lifespan shortening) (yeast cells [1]) | activity in the 809 assay (EC50) (DeaD strain BB579) | also measured
CCOc1ccc(CC(=O)C2C(=O)CC(C)(C)CC2=O)cc1OCC [SID 14732962] | inactive |  | 
CCn1cc(C(=O)O)c(=O)c2ccc(C)nc21 [nalidixic acid] |  |  | DeaD lifespan (yeast cells [2]; in the absence of nicotinamide): extends DeaD lifespan; DeaD lifespan (yeast cells [2]; in the presence of 1.5 mM nicotinamide): extends DeaD lifespan; maximum lifespan (yeast cells [3]; [4]): increased; mean lifespan (yeast cells [3]; [4]): increased
Cc1cc(C2C(=O)C(C(=O)c3ccc(Cl)cc3)C(=O)CC2(C)C)on1 (stereo not shown) [SID 842694] | inactive |  | 
CC1(C)CC(=O)C(C(=O)CCCCC(=O)C2C(=O)CC(C)(C)CC2=O)C(=O)C1 [SID 4245034] | inactive |  | 
CCCC(=O)C1C(=O)CC(CC(C)SCC)CC1=O (stereo not shown) [SID 14732512] | active | active | 
COC(=O)CCCCC(=O)C1C(=O)CC(C)(C)C(C(=O)OC)C1=O (stereo not shown) [SID 7972920] | inactive |  | 
CCCC(=O)C1C(=O)CC(C)(C)C(c2cc(C)no2)C1=O (stereo not shown) [SID 7972147] | active |  | 
CC1(C)CC(=O)C(C(=O)Cc2ccccc2[N+](=O)[O-])C(=O)C1 [SID 17511642] | active | active | 
CCOC(=O)C1C(=O)C(C(C)=O)C(=O)CC1CC(C)SCC (stereo not shown) [SID 14724551] | active | active | 
NC(=O)c1cccnc1 [nicotinamide] |  |  | C. elegans lifespan (C. elegans): reduce C. elegans lifespan; mean lifespan (yeast cells [3]; control population, 5 mM nicotinamide only): 14.2 generations; growth under permissive conditions (DeaD strain; growth in galactose (permissive conditions)): without altering growth; DeaD lifespan (DeaD strain; growth in glucose (nonpermissive conditions)): reduces the lifespan of the DeaD strain in a dose-dependent fashion
